Laboratory results reported in patent US20250215012A1, “IKZF2 DEGRADERS AND USES THEREOF” (REGENTS OF THE UNIVERSITY OF MICHIGAN, priority 2022, published 2025).
Where two headings read alike, the source gives them in different places.

Tests used:
IKZF1 = IKZF1 (Homo sapiens (Human), UniProt Q13422+Q96SW2); assay: IKZF1 HiBit Assay (HEK293T Flp-in-HiBiT-IKZF1 stable cell line); type: cell-based; details: for DC50: read-out: IKZF1 HiBit degradation DC50; for Dmax: HEK-293T, read-out: IKZF1 HiBit degradation Dmax
In short: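 HEK293T Flp-in cells with CRISPR-inserted N-terminal HiBiT tag treated 6 h with 11-point threefold dilutions (0.1% DMSO). Nano-Glo HiBiT lytic luminescence normalised to DMSO gave the 50%-degradation concentration; Dmax taken as the luminescence range from highest to lowest concentration.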

IKZF2 [1] = target: T1, IKZF2 (Homo sapiens (Human), UniProt Q96SW2+Q9UKS7); assay: IKZF2 FACS Assay (Jurkat cells); type: cell-based; details: read-out: IKZF2 FACS degradation Dmax
Description: (§1) Jurkat cells (ATCC, Cat […]) were cultured in RPMI1640+10% FBS+1% P/S. Cells were treated at desired compound concentrations (0.05 to 10 μM) and DMSO as vehicle control for 24 hrs.

IKZF2 [2] = target: IKZF2 (Homo sapiens (Human), UniProt Q9UKS7); assay: IKZF2 FACS Assay (Jurkat cells); type: cell-based; details: Jurkat cells, 24 hrs; read-out: IKZF2 FACS degradation DC50
Description: as §1

[3] = target: His tagged CRBN+DDB−DLS7+CXU4 (Homo sapiens (Human), UniProt Q96SW2); assay: IC50 Measurements for Binding to CRBN/DDBI (HTRF); details: Cy5-labeled Thalidomide probe, one hour incubation
IKZF2 [4] = target: T1, IKZF2; assay: IKZF2 HiBit Assay (HEK293T Flp-in-HiBiT cells); type: cell-based; details: for DC50: read-out: IKZF2 HiBit degradation DC50; for Dmax: HEK-293T, read-out: IKZF2 HiBit degradation Dmax
In short: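 HEK293T Flp-in cells carrying CRISPR-inserted N-terminal HiBiT tag at the endogenous IKZF2 locus were treated with an 11-point, 3-fold dilution from 1 mM (stock) for 6 hrs; final DMSO 0.1%. HiBiT luminescence was detected after lysis with LgBiT/substrate reagent. DMSO-normalized curves gave 50% degradation concentration and Dmax.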

[5] = HEK293T Flp-in-HiBiT-IKZF1 cells, 6 hrs
[6] = HEK293T Flp-in-HiBiT cells, 6 hrs

T1 sequence (Q9UKS7 whole entry): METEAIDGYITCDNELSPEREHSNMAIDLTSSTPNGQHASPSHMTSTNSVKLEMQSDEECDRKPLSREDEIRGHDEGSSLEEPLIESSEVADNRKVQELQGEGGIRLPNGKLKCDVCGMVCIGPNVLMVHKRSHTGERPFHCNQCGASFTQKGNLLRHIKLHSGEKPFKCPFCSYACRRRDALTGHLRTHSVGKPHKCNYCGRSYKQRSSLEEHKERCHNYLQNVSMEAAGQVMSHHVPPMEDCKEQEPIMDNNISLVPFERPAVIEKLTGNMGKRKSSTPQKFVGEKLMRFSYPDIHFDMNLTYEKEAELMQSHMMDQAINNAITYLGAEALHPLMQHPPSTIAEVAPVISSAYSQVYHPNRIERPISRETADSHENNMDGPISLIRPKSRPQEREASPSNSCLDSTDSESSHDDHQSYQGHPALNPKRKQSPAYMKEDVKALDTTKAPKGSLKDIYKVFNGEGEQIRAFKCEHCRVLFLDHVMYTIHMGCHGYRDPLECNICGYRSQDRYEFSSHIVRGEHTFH
T1 sequence (Q96SW2 whole entry): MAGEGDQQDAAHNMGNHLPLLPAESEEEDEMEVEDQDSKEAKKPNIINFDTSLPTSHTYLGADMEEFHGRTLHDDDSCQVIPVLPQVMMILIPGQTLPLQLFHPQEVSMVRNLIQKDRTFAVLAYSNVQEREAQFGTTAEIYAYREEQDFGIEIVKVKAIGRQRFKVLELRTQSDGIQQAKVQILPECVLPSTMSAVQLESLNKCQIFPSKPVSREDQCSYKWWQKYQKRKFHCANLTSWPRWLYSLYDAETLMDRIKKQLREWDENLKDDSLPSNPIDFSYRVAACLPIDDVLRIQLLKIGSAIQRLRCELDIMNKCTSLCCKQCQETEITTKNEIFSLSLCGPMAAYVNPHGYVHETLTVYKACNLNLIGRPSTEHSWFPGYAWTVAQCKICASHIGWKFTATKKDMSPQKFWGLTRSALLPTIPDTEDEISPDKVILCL
T1 sequence (Q16531 whole entry partner): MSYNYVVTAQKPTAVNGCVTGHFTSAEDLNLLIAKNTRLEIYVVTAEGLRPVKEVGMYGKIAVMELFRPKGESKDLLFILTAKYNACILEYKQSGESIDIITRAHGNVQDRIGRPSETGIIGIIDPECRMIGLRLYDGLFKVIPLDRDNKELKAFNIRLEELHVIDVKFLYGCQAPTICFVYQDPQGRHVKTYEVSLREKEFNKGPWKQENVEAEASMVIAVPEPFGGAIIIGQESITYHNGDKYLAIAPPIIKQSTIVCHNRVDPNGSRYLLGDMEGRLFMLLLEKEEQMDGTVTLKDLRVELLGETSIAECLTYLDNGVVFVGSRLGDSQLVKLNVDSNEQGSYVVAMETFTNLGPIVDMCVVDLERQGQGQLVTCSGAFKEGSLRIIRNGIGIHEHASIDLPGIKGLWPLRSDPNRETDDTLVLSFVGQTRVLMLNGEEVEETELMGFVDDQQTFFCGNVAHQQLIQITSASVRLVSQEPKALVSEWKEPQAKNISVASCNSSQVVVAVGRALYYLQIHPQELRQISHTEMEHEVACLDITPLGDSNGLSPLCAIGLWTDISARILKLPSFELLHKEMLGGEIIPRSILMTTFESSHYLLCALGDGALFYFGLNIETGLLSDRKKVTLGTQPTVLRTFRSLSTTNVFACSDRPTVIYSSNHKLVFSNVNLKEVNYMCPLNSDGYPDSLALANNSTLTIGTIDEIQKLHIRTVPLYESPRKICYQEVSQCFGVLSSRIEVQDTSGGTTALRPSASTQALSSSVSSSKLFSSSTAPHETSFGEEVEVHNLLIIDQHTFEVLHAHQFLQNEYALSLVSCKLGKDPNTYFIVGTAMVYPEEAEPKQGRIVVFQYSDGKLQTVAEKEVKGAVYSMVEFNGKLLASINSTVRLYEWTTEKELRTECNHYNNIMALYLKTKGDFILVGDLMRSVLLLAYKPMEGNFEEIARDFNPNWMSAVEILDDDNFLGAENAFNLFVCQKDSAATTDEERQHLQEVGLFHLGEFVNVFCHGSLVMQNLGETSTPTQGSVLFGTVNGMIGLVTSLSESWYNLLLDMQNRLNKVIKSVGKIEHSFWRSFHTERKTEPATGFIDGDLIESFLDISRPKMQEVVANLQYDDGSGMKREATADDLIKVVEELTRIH
Sequence of IKZF2 (Homo sapiens (Human), UniProt Q9UKS7) (Q9UKS7 whole entry): as the sequence (Q9UKS7 whole entry) above
Sequence of IKZF2 (Homo sapiens (Human), UniProt Q9UKS7) (Q96SW2 whole entry, further chain): as the sequence (Q96SW2 whole entry) above
Sequence of IKZF2 (Homo sapiens (Human), UniProt Q9UKS7) (Q16531 whole entry partner): as the sequence (Q16531 whole entry partner) above
Sequence of His tagged CRBN+DDB−DLS7+CXU4 (Q96SW2 whole entry): as the sequence (Q96SW2 whole entry) above
Sequence of His tagged CRBN+DDB−DLS7+CXU4 (Q16531 whole entry partner): as the sequence (Q16531 whole entry partner) above
Sequence of IKZF1 (Q13422 whole entry): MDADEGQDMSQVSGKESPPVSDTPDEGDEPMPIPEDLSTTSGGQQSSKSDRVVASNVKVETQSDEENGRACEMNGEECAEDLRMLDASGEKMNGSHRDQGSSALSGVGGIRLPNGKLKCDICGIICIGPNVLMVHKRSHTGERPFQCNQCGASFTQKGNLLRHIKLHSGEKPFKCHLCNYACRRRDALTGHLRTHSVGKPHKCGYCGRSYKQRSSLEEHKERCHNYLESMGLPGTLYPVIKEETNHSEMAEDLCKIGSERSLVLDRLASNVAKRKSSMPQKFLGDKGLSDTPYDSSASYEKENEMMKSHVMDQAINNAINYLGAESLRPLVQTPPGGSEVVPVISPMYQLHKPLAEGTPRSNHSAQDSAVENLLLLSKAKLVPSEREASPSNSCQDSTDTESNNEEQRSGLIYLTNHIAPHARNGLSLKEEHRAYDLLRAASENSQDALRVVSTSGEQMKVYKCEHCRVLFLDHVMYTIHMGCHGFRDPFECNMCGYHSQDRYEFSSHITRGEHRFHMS
Sequence of IKZF1 (Q96SW2 whole entry): as the sequence (Q96SW2 whole entry) above
Sequence of IKZF1 (Q16531 whole entry partner): as the sequence (Q16531 whole entry partner) above

| Structure (SMILES) | DC50 (IKZF1; [5]) [nM] | Dmax (IKZF1; [5]) [%] | Dmax (IKZF2 [1]; Jurkat cells, 24 hrs) [%] | DC50 (IKZF2 [2]) [nM] | IC50 [3] [nM] | DC50 (IKZF2 [4]; [6]) [nM] | Dmax (IKZF2 [4]; [6]) [%] | Dmax (IKZF1) [%] | Dmax (IKZF2 [1]; Jurkat) [%] | Dmax (IKZF2 [4]) [%] |
| --- | --- | --- | --- | --- | --- | --- | --- | --- | --- | --- |
| Cn1cc(-c2cccc(CN3CC[C@]4(COc5c4ccc4c5CN([C@H]5CCC(=O)NC5=O)C4=O)C(F)(F)C3)c2)cn1 [Compound B51, (S)-3-((S)-3′,3′-difluoro-1′-(3-(1-methyl-1H-pyrazol-4-yl)benzyl)-6-oxo-6,8-dihydro-2H,7H-spiro[furo[2,3-e]isoindole-3,4′-piperidin]-7-yl) piperidine-2,6-dione] | > 1000 | < 20 | > 60 | < 10 | < 100 | < 1 | 60 to 80 | – | – | – |
| O=C1CC[C@H](N2Cc3c(ccc4c3OCC43CCN(Cc4cnn(CC5CCOCC5)c4)CC3(F)F)C2=O)C(=O)N1 (stereo partly drawn) [Compound B46, (3S)-3-(3′,3′-difluoro-6-oxo-1′-((1-((tetrahydro-2H-pyran-4-yl)methyl)-1H-pyrazol-4-yl)methyl)-6,8-dihydro-2H,7H-spiro[furo[2,3-e]isoindole-3,4′-piperidin]-7-yl)piperidine-2,6-dione] | > 1000 | < 20 | 40 to 60 | < 10 | – | 1 to 10 | 60 to 80 | – | – | – |
| O=C1CC[C@H](N2Cc3c(ccc4c3OCC43CCN(Cc4cccc(-c5cnn(C6COC6)c5)c4)CC3(F)F)C2=O)C(=O)N1 (stereo partly drawn) [Compound B32, (3S)-3-(3′,3′-difluoro-1′-(3-(1-(oxetan-3-yl)-1H-pyrazol-4-yl)benzyl)-6-oxo-6,8-dihydro-2H,7H-spiro[furo[2,3-e]isoindole-3,4′-piperidin]-7-yl)piperidine-2,6-dione] | > 1000 | < 20 | 40 to 60 | < 10 | 100 to 500 | < 1 | 60 to 80 | – | – | – |
| Cn1cc(-c2cccc(CN3CCC4(CC3)COc3c4ccc4c3CN([C@@H]3CCC(=O)NC3=O)C4=O)c2)cn1 [Compound B14, (R)-3-(1′-(3-(1-methyl-1H-pyrazol-4-yl)benzyl)-6-oxo-6,8-dihydro-2H,7H-spiro[furo[2,3-e]isoindole-3,4′-piperidin]-7-yl)piperidine-2,6-dione] | > 1000 | – | – | > 10 | 1000 to 5000 | 1 to 10 | – | < 20 | 40 to 60 | > 80 |
| O=C1CC[C@H](N2Cc3c(ccc4c3OC[C@]43CCN(Cc4cccc(-c5cnn(C6COC6)c5)c4)CC3(F)F)C2=O)C(=O)N1 [Compound B53, (S)-3-((S)-3′,3′-difluoro-1′-(3-(1-(oxetan-3-yl)-1H-pyrazol-4-yl)benzyl)-6-oxo-6,8-dihydro-2H,7H-spiro[furo[2,3-e]isoindole-3,4′-piperidin]-7-yl)piperidine-2,6-dione] | > 1000 | < 20 | 40 to 60 | < 10 | – | < 1 | > 80 | – | – | – |
| Cn1cc(-c2cccc(CN3CCC4(COc5c4ccc4c5CN(C5CCC(=O)NC5=O)C4=O)C(F)(F)C3)c2)cn1 (stereo not drawn) [Compound B26, 3-(3′,3′-difluoro-1′-(3-(1-methyl-1H-pyrazol-4-yl)benzyl)-6-oxo-6,8-dihydro-2H,7H-spiro[furo[2,3-e]isoindole-3,4′-piperidin]-7-yl)piperidine-2,6-dione] | > 1000 | < 20 | > 60 | < 10 | – | 1 to 10 | > 80 | – | – | – |
| N#Cc1ccc(-n2cc(CN3CCC4(COc5c4ccc4c5CN([C@H]5CCC(=O)NC5=O)C4=O)C(F)(F)C3)cn2)cc1 (stereo partly drawn) [Compound B27, 4-(4-((7-((S)-2,6-dioxopiperidin-3-yl)-3′,3′-difluoro-6-oxo-7,8-dihydro-2H,6H-spiro[furo[2,3-e]isoindole-3,4′-piperidin]-1′-yl)methyl)-1H-pyrazol-1-yl)benzonitrile] | > 1000 | < 20 | < 40 | > 10 | – | 1 to 10 | 60 to 80 | – | – | – |
